Each molecule was assayed against T1, Human FXRα Ligand Binding Domain (FXRα LBD) (Homo sapiens, UniProt Q96RI1) (assay: FXR Affinity Binding Assay: ligand mediated cofactor peptide (SRC-1 LCD2, 676-700) interaction, time resolved fluorescence). Details: FXRα LBD-APC / europium labeled SRC-1 peptide, TRF signal, at least 2 hours at room temperature; read-out: Activity (pEC50) (converted).
T1 construct: polyhistidine (N); made in house; host or cells: E. coli BL21 (DE3), pRSET-A vector
T1 sequence (Q96RI1 222-472 isoform Q96RI1-2): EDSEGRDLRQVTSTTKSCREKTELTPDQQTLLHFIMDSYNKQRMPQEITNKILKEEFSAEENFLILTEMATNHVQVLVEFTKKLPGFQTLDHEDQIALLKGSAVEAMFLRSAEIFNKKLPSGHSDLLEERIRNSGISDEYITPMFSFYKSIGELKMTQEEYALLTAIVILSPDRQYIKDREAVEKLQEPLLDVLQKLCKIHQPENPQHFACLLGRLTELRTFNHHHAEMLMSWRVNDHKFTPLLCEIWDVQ
Experimental: Determination of a ligand mediated cofactor peptide interaction to quantify ligand binding to the nuclear receptor Farnasoid X Receptor (FXR). The method measures the ability of putative ligands to modulate the interaction between the purified bacterial expressed FXRα (LBD) and a synthetic biotinylated peptide based on residues 676-700 of SRC-1(LCD2, 676-700). […] Detection of the associated complex is measured by time resolved fluorescence (TRF). The purified LBD of FXR is labeled with biotin then mixed with stoichiometric amounts of APC labeled streptavidin (Molecular Probes). The biotinylated peptide is then mixed with a ½ stoichiometric amount of europium labeled streptavidin (Wallac Inc). Each is then blocked with a 5 fold excess of biotin and allowed to equilibrate for 15 min. Equimolar amounts of receptor and peptide are mixed together and allowed to equilibrate for at least 30 min prior to the addition to either a variable or constant concentrations of the sample for which the affinity is to be determined. After equilibration, the time-resolved fluorescent signal is quantitated using a fluorescent plate reader. The affinity of the test compound is estimated from a plot of fluorescence versus concentration of test compound added.
Ligands that promote the complex formation induce a concentration-dependent increase in time-resolved fluorescent signal.
Human FXRα Ligand Binding Domain (FXRα LBD) was expressed in E.coli strain BL21 (DE3) as an amino-terminal polyhistidine tagged fusion protein. Expression was under the control of an IPTG inducible T7 promoter. DNA encoding this recombinant protein was subcloned into the pRSET-A expression vector (Invitrogen). The coding sequence of Human FXRα LBD was derived from Genbank accession number U 68233 (amino acids 222 to 472).
Routinely, 30-40 g cell paste (equivalent to 2-3 liters of the fermentation batch) was resuspended in 200-250 mL TBS, pH 7.2 (25mM Tris, 150 mM NaCl). Cells were lysed by passing 3 times through a French Press and cell debris was removed by centrifugation (30 minutes, 20,000 g, 4° C.). The cleared supernatant was filtered through course pre-filters, and TBS, pH 7.2, containing 500 mM imidazole was added to obtain a final imidazole concentration of 50 mM. This lysate was loaded onto a column (6×8 cm) packed with Sepharose [Ni^++ charged]Chelation resin (Pharmacia) and pre-equilibrated with TBS pH 7.21 50 mM imidazole. After washing to baseline absorbance with equilibration buffer, the column was washed with one column volume of TBS pH 7.2 containing 90 mM imidazole. FXRαLBD was eluted directly with 365 mM imidazole. Column fractions were pooled and dialyzed against TBS, pH 7.2, containing 0.5 mM EDTA and 5 mM DTT. The dialyzed protein sample was concentrated using Centri-prep 10 K (Amicon) and subjected to size exclusion, using a column (3×90 cm) packed with Sepharose S-75 resin (Pharmacia) pre-equilibrated with TBS, pH 7.2, containing 0.5 mM EDTA and 5 mM DTT.
Purified FXRα LBD was desalted/buffer exchanged using PD-10 gel filtration columns into PBS [100 mM NaPhosphate, pH 7.2, 150 mM NaCl]. FXRα LBD was diluted to approximately 10 μM in PBS and five-fold molar excess of NHS-LC-Biotin (Pierce) was added in a minimal volume of PBS. This solution was incubated with gentle mixing for 30 minutes at room temperature. The biotinylation modification reaction was stopped by the addition of 2000× molar excess of Tris-HCl, pH 8. The modified FXRα LBD was dialyzed against 4 buffer changes, each of at least 50 volumes, PBS containing 5 mM DTT, 2 mM EDTA and 2% sucrose.

SMILES	EC50 [µM]
COC(=O)c1ccc(C(=O)Nc2ccc(OCc3c(-c4c(Cl)cccc4Cl)noc3C(C)C)cc2Cl)cc1 [Example 25, Methyl 4-[(2-chloro-4-{[3-(2,6-dichlorophenyl)-5-isopropyl-4-isoxazolyl]methoxy}anilino)carbonyl]benzoate]	0.102 to 1
Cc1cc(OCc2c(-c3ccccc3OC(F)(F)F)noc2C(C)C)ccc1N(C)S(=O)(=O)c1cccc(C(=O)O)c1 [Example 73, 3-{[[4-({5-Isopropyl-3-[2-(trifluoromethoxy)phenyl]isoxazol-4-yl}methoxy)-2-methyl-phenyl](methyl)amino]sulfonyl}benzoic acid]	0.102 to 1
Cc1cc(OCc2c(-c3c(Cl)cccc3Cl)noc2C(C)C)ccc1N(C)Cc1ccc2nonc2c1 [Example 7, N-(2,1,3-Benzoxadiazol-5-ylmethyl)-4-{[3-(2,6-dichlorophenyl)-5-isopropyl-4-isoxazolyl]methoxy}-N,2-dimethylaniline]	0.102 to 1
COC(=O)c1cccc(S(=O)(=O)N(C)c2ccc(OCc3c(-c4c(Cl)cccc4Cl)noc3C(C)C)cc2C)c1 [Example 35, Methyl 3-{[(4-{[3-(2,6-dichlorophenyl)-5-isopropylisoxazol-4-yl]methoxy}-2-methylphenyl)(methyl)amino]sulfonyl}benzoate]	0.102 to 1
CC(C)c1onc(-c2ccccc2OC(F)(F)F)c1COc1ccc(NS(=O)(=O)c2cccc(C(=O)O)c2)c(Cl)c1 [Example 68, 3-({[2-Chloro-4-({5-isopropyl-3-[2-(trifluoromethoxy)phenyl]isoxazol-4-yl}methoxy)-phenyl]amino}sulfonyl)benzoic acid]	1.02 to 10
CC(C)c1onc(-c2ccccc2OC(F)(F)F)c1COc1ccc(N(C)C(=O)c2cccc(C(=O)O)c2)c(Cl)c1 [Example 34, 3-{[2-Chloro-4-({5-isopropyl-3-[2-(trifluoromethoxy)phenyl]-4-isoxazolyl}methoxy)methylanilino]carbonyl}benzoic acid]	0.102 to 1

The remaining lines, values ahead:

EC50 [µM]	SMILES
< 0.1	CC(C)c1onc(-c2c(Cl)cccc2Cl)c1COc1ccc(COc2cccc(C(=O)O)c2)c(Cl)c1 [Example 77, 3-[(2-Chloro-4-{[3-(2,6-dichlorophenyl)-5-isopropylisoxazol-4-yl]methoxy}benzyl)oxy]-benzoic acid]
1.02 to 10	CC(C)c1onc(-c2c(Cl)cccc2Cl)c1COc1ccc(NS(=O)(=O)c2ccc(C(=O)O)cc2)c(Cl)c1 [Example 56, 4-{[(2-Chloro-4-{[3-(2,6-dichlorophenyl)-5-isopropylisoxazol-4-yl]methoxy}phenyl)-amino]sulfonyl}benzoic acid]
0.102 to 1	CC(C)c1onc(-c2c(Cl)cccc2Cl)c1COc1ccc(N(C)S(=O)(=O)c2ccc(C(=O)O)cc2)cc1 [Example 64, 4-{[(4-{[3-(2,6-Dichlorophenyl)-5-isopropylisoxazol-4-yl]methoxy}phenyl)(methyl)-amino]sulfonyl}benzoic acid]
0.102 to 1	Cc1cc(OCc2c(-c3ccccc3OC(F)(F)F)noc2C(C)C)ccc1NC(=O)c1cccc(C(=O)O)c1 [Example 33, 3-{[4-({5-Isopropyl-3-[2-(trifluoromethoxy)phenyl]-4-isoxazolyl}methoxy)-2-methylanilino]carbonyl}benzoic acid]
< 0.1	CC(C)c1onc(-c2c(Cl)cccc2Cl)c1COc1ccc(N(C)S(=O)(=O)c2ccc(C(=O)O)cc2)c(Cl)c1 [Example 62, 4-{[(2-Chloro-4-{[3-(2,6-dichlorophenyl)-5-isopropylisoxazol-4-yl]methoxy}phenyl)-(methyl)amino]sulfonyl}benzoic acid]
0.102 to 1	Cc1cc(OCc2c(Cc3ccccc3Cl)noc2C(C)C)ccc1N(C)Cc1cccc(C(=O)O)c1 [Example 16, 3-{[(4-{[3-(2-Chlorobenzyl)-5-isopropylisoxazol-4-yl]methoxy}-2-methylphenyl)(methyl)-amino]methyl}benzoic acid]

From patent US7319109B2, “Farnesoid X receptor agonists” (Smith Kline Beecham Corporation, priority 2002, dated 2008)
